Measured values from ChEMBL document CHEMBL4476873, “Substituted urea depsipeptide analogs as activators of the clpp endopeptidase” (2018).
Converted amounts (≈) assume the structure as drawn.

Columns and labels:
[1] = tested on: Staphylococcus aureus; test: Antimicrobial activity against Staphylococcus aureus USA300 incubated overnight under aerobic condition by microbroth dilution method; format: functional
[2] = tested on: Staphylococcus aureus; test: Antimicrobial activity against Staphylococcus aureus ATCC 29213 incubated overnight under aerobic condition by microbroth dilution method; format: functional
[3] = tested on: Staphylococcus aureus; test: Antimicrobial activity against Staphylococcus aureus USA300 deficient in ClpP incubated overnight under aerobic condition by microbroth dilution method; format: functional
[4] = tested on: Streptococcus pyogenes; test: Antimicrobial activity against Streptococcus pyogenes ATCC 700294 incubated overnight under aerobic condition by microbroth dilution method; format: functional
[5] = tested on: Staphylococcus aureus; test: Antimicrobial activity against Staphylococcus aureus NRS70 incubated overnight under aerobic condition by microbroth dilution method; format: functional
[6] = tested on: Vero; test: Cytotoxicity in African green monkey Vero cells assessed as reduction in cell viability incubated for 72 hrs by cell-titer-Glo luminescent cell viability assay; format: cell-based; details: Chlorocebus sabaeus
[7] = molecular target: T1, ATP-dependent Clp protease proteolytic subunit (Staphylococcus aureus (strain NCTC 8325), UniProt Q2G036); test: Activation of Staphylococcus aureus ClpP using BODIPY-FL-casein as substrate incubated for 30 mins by Enz-Check protease assay
T1 sequence (Q2G036 whole entry): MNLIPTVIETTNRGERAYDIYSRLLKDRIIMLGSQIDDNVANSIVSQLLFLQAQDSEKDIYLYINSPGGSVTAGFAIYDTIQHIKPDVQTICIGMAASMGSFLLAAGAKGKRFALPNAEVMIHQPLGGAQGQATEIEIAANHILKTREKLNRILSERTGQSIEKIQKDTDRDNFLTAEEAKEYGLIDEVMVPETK

[8] = tested on: Streptococcus pneumoniae; test: Antimicrobial activity against Streptococcus pneumoniae R6 incubated overnight under aerobic condition by microbroth dilution method; format: functional
[9] = molecular target: T1, ATP-dependent Clp protease proteolytic subunit; test: Displacement of ADEP2591 from Staphylococcus aureus ClpP expressed in Escherichia coli BL21 (DE3) incubated for 120 mins by fluorescence polarization assay

C[C@@H]1C[C@H]2C(=O)O[C@@H](C)[C@H](NC(=O)[C@H](Cc3cc(F)cc(F)c3)NC(=O)Nc3ccc(OC(F)(F)F)cc3)C(=O)N3CCC[C@H]3C(=O)N3CCCC[C@H]3C(=O)N[C@@H](C)C(=O)N2C1
MIC [1]: 0.05 µM (≈ 0.0439 µg/mL) | MIC [2]: 0.05 µM (≈ 0.0439 µg/mL)

Cc1ccc(NC(=O)N[C@@H](Cc2ccccc2)C(=O)N[C@H]2COC(=O)[C@@H]3C[C@H](C)CN3C(=O)[C@H](C)NC(=O)[C@@H]3CCCCN3C(=O)[C@@H]3CCCN3C2=O)cc1
MIC [3]: > 200 µM

Cc1ccc(NC(=O)N[C@@H](Cc2cc(F)cc(F)c2)C(=O)N[C@H]2COC(=O)[C@@H]3C[C@H](F)CN3C(=O)[C@H](C)NC(=O)[C@@H]3CCCCN3C(=O)[C@@H]3CCCN3C2=O)cc1
MIC [3]: > 200 µM

C[C@@H]1NC(=O)[C@@H]2CCCCN2C(=O)[C@@H]2CCCN2C(=O)[C@@H](NC(=O)[C@H](Cc2cc(F)cc(F)c2)NC(=O)Nc2ccc3c(c2)OCO3)[C@H](C)OC(=O)[C@@H]2CCCN2C1=O
MIC [4]: < 0.1 µM | MIC [1]: 3.1 µM (≈ 2.55 µg/mL) | MIC [5]: 3.1 µM (≈ 2.55 µg/mL) | MIC [2]: 3.1 µM (≈ 2.55 µg/mL)

Cc1ccc(NC(=O)N[C@@H](Cc2cc(F)cc(F)c2)C(=O)N[C@H]2COC(=O)[C@@H]3CC(C)(C)CN3C(=O)[C@H](C)NC(=O)[C@@H]3CCCCN3C(=O)[C@@H]3CCCN3C2=O)cc1
MIC [3]: 100 µM (≈ 80.8 µg/mL)

C[C@H]1C[C@H]2C(=O)O[C@@H](C)[C@H](NC(=O)[C@H](Cc3cc(F)cc(F)c3)NC(=O)Nc3ccc4c(c3)OCO4)C(=O)N3CCC[C@H]3C(=O)N3CCCC[C@H]3C(=O)N[C@@H](C)C(=O)N2C1
MIC [1]: 0.8 µM (≈ 0.67 µg/mL) | MIC [2]: 0.8 µM (≈ 0.67 µg/mL)

CCc1ccc(NC(=O)N[C@@H](Cc2cc(F)cc(F)c2)C(=O)N[C@@H]2C(=O)N3CCC[C@H]3C(=O)N(C)[C@@H](C)C(=O)N[C@@H](C)C(=O)N3CCC[C@H]3C(=O)O[C@H]2C)cc1
MIC [3]: 100 µM (≈ 78.2 µg/mL) | MIC [1]: 0.2 µM (≈ 0.156 µg/mL) | MIC [5]: 0.2 µM (≈ 0.156 µg/mL) | MIC [2]: 0.2 µM (≈ 0.156 µg/mL)

Cc1ccc(NC(=O)N[C@@H](Cc2cc(F)cc(F)c2)C(=O)N[C@@H]2C(=O)N3C[C@H](O)C[C@H]3C(=O)N(C)[C@@H](C)C(=O)N[C@@H](C)C(=O)N3C[C@@H](C)C[C@H]3C(=O)O[C@H]2C)cc1
MIC [3]: > 200 µM | IC50 [6]: > 100 µM | EC50 [7]: 0.37 µM

Cc1ccc(NC(=O)N[C@@H](Cc2cc(F)cc(F)c2)C(=O)N[C@@H]2C(=O)N3CCC[C@H]3C(=O)N3CCCC[C@H]3C(=O)N[C@@H](C)C(=O)N3C[C@@H](C)C[C@H]3C(=O)O[C@H]2C)cc1
MIC [4]: 0.4 µM (≈ 0.323 µg/mL) | MIC [3]: 100 µM (≈ 80.8 µg/mL)

Cc1ccc(NC(=O)N[C@@H](Cc2cc(F)cc(F)c2)C(=O)N[C@@H]2C(=O)N3CCC[C@H]3C(=O)N3CCCC[C@H]3C(=O)N[C@@H](C)C(=O)N3C[C@H](C)C[C@H]3C(=O)O[C@H]2C)cc1
MIC [8]: 0.05 µM (≈ 0.0404 µg/mL) | MIC [4]: 0.2 µM (≈ 0.162 µg/mL) | MIC [3]: 100 µM (≈ 80.8 µg/mL) | MIC [1]: 0.05 µM (≈ 0.0404 µg/mL) | IC50 [6]: 40 µM | MIC [2]: 0.05 µM (≈ 0.0404 µg/mL)

C[C@@H]1NC(=O)[C@H](C)N(C)C(=O)[C@@H]2CCCN2C(=O)[C@@H](NC(=O)[C@H](Cc2cc(F)cc(F)c2)NC(=O)Nc2ccc(OC(F)(F)F)cc2)[C@H](C)OC(=O)[C@@H]2CCCN2C1=O
MIC [3]: 100 µM (≈ 83.8 µg/mL) | MIC [1]: 0.2 µM (≈ 0.168 µg/mL) | MIC [5]: 0.2 µM (≈ 0.168 µg/mL) | MIC [2]: 0.2 µM (≈ 0.168 µg/mL)

C[C@H]1C[C@H]2C(=O)O[C@@H](C)[C@H](NC(=O)[C@H](Cc3cc(F)cc(F)c3)NC(=O)Nc3ccc(OC(F)(F)F)cc3)C(=O)N3CCC[C@H]3C(=O)N(C)[C@@H]([C@H](C)O)C(=O)N[C@@H](C)C(=O)N2C1
IC50 [6]: 25.4 µM

C[C@@H]1C[C@H]2C(=O)OC[C@H](NC(=O)[C@H](Cc3ccccc3)NC(=O)Nc3ccc(OC(F)(F)F)cc3)C(=O)N3CCC[C@H]3C(=O)N3CCCC[C@H]3C(=O)N[C@@H](C)C(=O)N2C1
MIC [4]: 0.1 µM (≈ 0.0828 µg/mL)

C[C@@H]1C[C@H]2C(=O)O[C@@H](C)[C@H](NC(=O)[C@H](Cc3cc(F)cc(F)c3)NC(=O)Nc3ccc(OC(F)(F)F)cc3)C(=O)N3CCC[C@H]3C(=O)N(C)[C@@H]([C@H](C)O)C(=O)N[C@@H](C)C(=O)N2C1
IC50 [9]: 7.53 µM | IC50 [6]: 23.9 µM

CCc1cccc(NC(=O)N[C@@H](Cc2ccccc2)C(=O)N[C@H]2COC(=O)[C@@H]3C[C@@H](C)CN3C(=O)[C@H](C)NC(=O)[C@@H]3CCCCN3C(=O)[C@@H]3CCCN3C2=O)c1
MIC [5]: 0.6 µM (≈ 0.463 µg/mL) | MIC [2]: 0.6 µM (≈ 0.463 µg/mL)

C[C@H]1C[C@H]2C(=O)OC[C@H](NC(=O)[C@H](Cc3cc(F)cc(F)c3)NC(=O)Nc3ccc4c(c3)OCO4)C(=O)N3CCC[C@H]3C(=O)N3CCCC[C@H]3C(=O)N[C@@H](C)C(=O)N2C1
MIC [1]: 3.1 µM (≈ 2.55 µg/mL) | MIC [2]: 3.1 µM (≈ 2.55 µg/mL)
